Data as given in PMC12811658, “Design, Synthesis, and Structural Evolution of Pseudo‐Natural Product IDO1 Inhibitors and Degraders” (Angewandte Chemie (International Ed. in English), 2025).
“Also recorded” adds a separate entry of the source.

Assays:
recombinant human IDO1 = molecular target: T1, recombinant human IDO1 (Homo sapiens, UniProt P14902); assay: IDO1 enzymatic assay in vitro; assay type: biochemical; details: pre-incubation 37 °C 45 min; for inhibition at 14 µM: mean ± SD
T1 construct: The GST-tag of IDO1 was removed to obtain untagged full-length IDO1l using PreScission protease; GST (N, cleaved yes); made in house; own inference

[1] = molecular target: IDO1 protein levels in BxPC3 cells (Homo sapiens, UniProt P14902); assay: IDO1 immunoblotting (degradation); assay type: cell-based; design: endogenous in cells; host or cells: BxPC3 (DSMZ), IFN-γ stimulated; details: for Max. degradation (%): 24 h incubation, mean ± SD
[2] = tested on: Kyn levels in BxPC3 cells (kynurenine generated by IDO1); assay: Cellular Kyn assay (automated Kyn screening assay); assay type: cell-based; details: for IC50: Homo sapiens, BXPC-3, 48 h, IFN-γ, L-Trp and compounds 48 h, mean ± SD, read-out: IC50 (Kyn assay), reduction of kynurenine levels
[3] = determined if inhibition at 14 µM higher than 50%

T1 sequence (P14902 whole entry): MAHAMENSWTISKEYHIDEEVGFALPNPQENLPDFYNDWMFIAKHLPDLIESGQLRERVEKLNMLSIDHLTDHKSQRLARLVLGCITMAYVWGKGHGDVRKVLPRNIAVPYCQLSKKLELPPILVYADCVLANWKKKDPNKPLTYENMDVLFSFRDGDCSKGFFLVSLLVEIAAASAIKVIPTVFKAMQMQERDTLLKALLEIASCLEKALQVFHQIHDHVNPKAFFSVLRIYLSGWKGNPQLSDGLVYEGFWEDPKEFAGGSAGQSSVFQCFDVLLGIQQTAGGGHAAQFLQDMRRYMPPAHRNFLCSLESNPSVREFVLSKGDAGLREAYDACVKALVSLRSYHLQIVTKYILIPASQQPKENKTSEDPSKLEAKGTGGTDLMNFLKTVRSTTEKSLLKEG
Sequence of IDO1 protein levels in BxPC3 cells (P14902 whole entry): as above

COc1cc(C(C)(C)C)ccc1S(=O)(=O)N1C[C@H]2C[C@H]3C[C@H](C3(C)C)[C@@]2(COC(=O)Nc2ccc(I)cc2)C1 [compound 82, ((3aS,4R,6R,7aS)-2-((4-(tert-butyl)-2-methoxyphenyl)sulfonyl)-5,5-dimethyloctahydro-3aH-4,6-methanoisoindol-3a-yl)methyl (4-iodophenyl)carbamate]
inhibition at 14 µM (recombinant human IDO1): < 25% | IDO1 activity IC50 [µM] (in vitro assay) (recombinant human IDO1; [3]): – (Inactive: >75% Kyn level observed up to a concentration of 14 µM and no IC50 value obtained) | Max. degradation (%) ([1]; 10 nM): 14 ± 15 (5) % | Max. degradation (%) ([1]; 100 nM): 59 ± 16 (5) % | IC50 [2]: 46 ± 15 nM

CC(C)(C)c1ccc(S(=O)(=O)N2C[C@H]3C[C@H]4C[C@H](C4(C)C)[C@@]3(COC(=O)Nc3ccc(I)cc3)C2)c(Br)c1 [compound 83, ((3aS,4R,6R,7aS)-2-((2-bromo-4-(tert-butyl)phenyl)sulfonyl)-5,5-dimethyloctahydro-3aH-4,6-methanoisoindol-3a-yl)methyl (4-iodophenyl)carbamate]
inhibition at 14 µM (recombinant human IDO1): < 25% | IDO1 activity IC50 [µM] (in vitro assay) (recombinant human IDO1; [3]): – (Inactive: >75% Kyn level observed up to a concentration of 14 µM and no IC50 value obtained) | Max. degradation (%) ([1]; 10 nM): 24 ± 15 (3) % | Max. degradation (%) ([1]; 100 nM): 56 ± 4 (3) % | IC50 [2]: 35 ± 6 nM

COC(=O)C(C)(C)c1ccc(S(=O)(=O)N2C[C@H]3C[C@H]4C[C@H](C4(C)C)[C@@]3(COC(=O)Nc3ccc(I)cc3)C2)c(Cl)c1 [compound 94, Methyl 2-(3-chloro-4-(((3aS,4R,6R,7aS)-3a-((((4-iodophenyl)carbamoyl)oxy)methyl)-5,5-dimethyloctahydro-2H-4,6-methanoisoindol-2-yl)sulfonyl)phenyl)-2-methylpropanoate]
inhibition at 14 µM (recombinant human IDO1): < 25% | IDO1 activity IC50 [µM] (in vitro assay) (recombinant human IDO1; [3]): – (Inactive: >75% Kyn level observed up to a concentration of 14 µM and no IC50 value obtained) | IC50 [2]: 43 ± 24 nM

CC(C)(C(=O)O)c1ccc(S(=O)(=O)N2C[C@H]3C[C@H]4C[C@H](C4(C)C)[C@@]3(COC(=O)Nc3ccc(I)cc3)C2)cc1 [92 (iDeg-5), 2-(4-(((3aS,4R,6R,7aS)-3a-((((4-iodophenyl)carbamoyl)oxy)methyl)-5,5-dimethyloctahydro-2H-4,6-methanoisoindol-2-yl)sulfonyl)phenyl)-2-methylpropanoic acid]
inhibition at 14 µM (recombinant human IDO1): 66 ± 8% | IC50 (recombinant human IDO1; [3]): 0.82 ± 0.14 µM | Max. degradation (%) ([1]; 10 nM): 23 ± 22 (5) % | Max. degradation (%) ([1]; 100 nM): 46 ± 21 (5) % | Dmax at 0.1 µM ([1]; BXPC-3, @100 nM, BxPC3 cells): 36 to 54% | fold increase in potency compared to iDeg-2 in Kyn assay [2]: 4 fold | IC50 [2]: 30 ± 3 nM

COC(=O)C(C)(C)c1ccc(S(=O)(=O)N2C[C@H]3C[C@H]4C[C@H](C4(C)C)[C@@]3(COC(=O)Nc3ccc(I)cc3)C2)c(OC)c1 [compound 93, Methyl 2-(4-(((3aS,4R,6R,7aS)-3a-((((4-iodophenyl)carbamoyl)oxy)methyl)-5,5-dimethyloctahydro-2H-4,6-methanoisoindol-2-yl)sulfonyl)-3-methoxyphenyl)-2-methylpropanoate]
inhibition at 14 µM (recombinant human IDO1): < 25% | IDO1 activity IC50 [µM] (in vitro assay) (recombinant human IDO1; [3]): – (Inactive: >75% Kyn level observed up to a concentration of 14 µM and no IC50 value obtained) | IC50 [2]: 73 ± 41 nM

CC1(C)[C@H]2C[C@@H]3CN(S(=O)(=O)c4ccc(C5CCCCC5)cc4)C[C@]3(COC(=O)Nc3ccc(I)cc3)[C@@H]1C2 [compound 71, ((3aS,4R,6R,7aS)-2-((4-cyclohexylphenyl)sulfonyl)-5,5-dimethyloctahydro-3aH-4,6-methanoisoindol-3a-yl)methyl (4-iodophenyl)carbamate]
IC50 [2]: 1100 ± 300 nM

CC(C)c1ccc(S(=O)(=O)N2C[C@H]3C[C@H]4C[C@H](C4(C)C)[C@@]3(COC(=O)Nc3ccc(I)cc3)C2)cc1 [compound 69, ((3aS,4R,6R,7aS)-2-((4-isopropylphenyl)sulfonyl)-5,5-dimethyloctahydro-3aH-4,6-methanoisoindol-3a-yl)methyl (4-iodophenyl)carbamate]
IC50 [2]: 140 ± 20 nM

CC(C)(C)c1ccc(S(=O)(=O)N2C[C@H]3C[C@H]4C[C@H](C4(C)C)[C@@]3(COC(=O)Nc3ccc(Br)cc3)C2)cc1 [compound 36, ((3aS,4R,6R,7aS)-2-((4-(tert-butyl)phenyl)sulfonyl)-5,5-dimethyloctahydro-3aH-4,6-methanoisoindol-3a-yl)methyl (4-bromophenyl)carbamate]
IC50 [2]: 230 ± 50 nM

CC(C)(C)c1ccc(S(=O)(=O)N2C[C@H]3C[C@H]4C[C@H](C4(C)C)[C@@]3(COC(=O)Nc3ccccc3I)C2)cc1 [compound 37, ((3aS,4R,6R,7aS)-2-((4-(tert-butyl)phenyl)sulfonyl)-5,5-dimethyloctahydro-3aH-4,6-methanoisoindol-3a-yl)methyl (2-iodophenyl)carbamate]
IC50 [2]: 890 ± 180 nM

CC1(C)[C@H]2C[C@@H]3CN(S(=O)(=O)c4ccccc4)C[C@]3(COC(=O)Nc3ccc(I)cc3)[C@@H]1C2 [compound 65, ((3aS,4R,6R,7aS)-5,5-dimethyl-2-(phenylsulfonyl)octahydro-3aH-4,6-methanoisoindol-3a-yl)methyl (4-iodophenyl)carbamate]
IC50 [2]: 2600 ± 500 nM

COc1ccc(S(=O)(=O)N2C[C@H]3C[C@H]4C[C@H](C4(C)C)[C@@]3(COC(=O)Nc3ccc(C)cc3)C2)cc1 [compound 57, ((3aS,4R,6R,7aS)-2-((4-methoxyphenyl)sulfonyl)-5,5-dimethyloctahydro-3aH-4,6-methanoisoindol-3a-yl)methyl p-tolylcarbamate]
IC50 [2]: > 10000 nM

Cc1ccc(NC(=O)OC[C@]23CN(S(=O)(=O)c4ccccc4Br)C[C@H]2C[C@H]2C[C@@H]3C2(C)C)cc1 [compound 59, ((3aS,4R,6R,7aS)-2-((2-bromophenyl)sulfonyl)-5,5-dimethyloctahydro-3aH-4,6-methanoisoindol-3a-yl)methyl p-tolylcarbamate]
IC50 [2]: 6200 ± 1700 nM

CC1(C)[C@H]2C[C@@H]3CN(S(=O)(=O)c4ccc([Si](C)(C)C)cc4)C[C@]3(COC(=O)Nc3ccc(I)cc3)[C@@H]1C2 [compound 77, ((3aS,4R,6R,7aS)-5,5-dimethyl-2-((4-(trimethylsilyl)phenyl)sulfonyl)octahydro-3aH-4,6-methanoisoindol-3a-yl)methyl (4-iodophenyl)carbamate]
IC50 [2]: 260 ± 90 nM

CC(C)(C)c1ccc(S(=O)(=O)N2CC3CCCC3(COC(=O)Nc3ccc(I)cc3)C2)cc1 (stereo not shown) [compound 26, (2-((4-(tert-butyl)phenyl)sulfonyl)hexahydrocyclopenta [c]pyrrol-3a(1H)-yl) methyl (4-iodophenyl) carbamate]
activity in cellular Kyn assay (in words) [2]: inactive

CC(C)(C)c1ccc(S(=O)(=O)N2C[C@H]3C[C@H]4C[C@H](C4(C)C)[C@@]3(COC(=O)Nc3ccc(Cl)cc3)C2)cc1 [compound 35, ((3aS,4R,6R,7aS)-2-((4-(tert-butyl)phenyl)sulfonyl)-5,5-dimethyloctahydro-3aH-4,6-methanoisoindol-3a-yl)methyl (4-chlorophenyl)carbamate]
IC50 [2]: 510 ± 80 nM

CC1(C)[C@H]2C[C@@H]3CN(S(=O)(=O)c4cccnc4)C[C@]3(COC(=O)Nc3ccc(I)cc3)[C@@H]1C2 [compound 61, ((3aS,4R,6R,7aS)-5,5-dimethyl-2-(pyridin-3-ylsulfonyl)octahydro-3aH-4,6-methanoisoindol-3a-yl)methyl (4-iodophenyl)carbamate]
IC50 [2]: 6100 ± 900 nM

CC(C)(C)c1ccc(S(=O)(=O)N2CC3CCCCC3(COC(=O)Nc3ccc(I)cc3)C2)cc1 (stereo not shown) [compound 25, (2-((4-(tert-butyl)phenyl)sulfonyl)octahydro-3aH-isoindol-3a-yl) methyl (4-iodophenyl) carbamate]
activity in cellular Kyn assay (in words) [2]: inactive

CC(C)(C)c1ccc(S(=O)(=O)N2C[C@H]3C[C@H]4C[C@H](C4(C)C)[C@@]3(COC(=O)Nc3ccccc3Br)C2)cc1 [compound 38, ((3aS,4R,6R,7aS)-2-((4-(tert-butyl)phenyl)sulfonyl)-5,5-dimethyloctahydro-3aH-4,6-methanoisoindol-3a-yl)methyl (2-bromophenyl)carbamate]
IC50 [2]: 390 ± 70 nM

COC(=O)CC(C)(C)c1ccc(S(=O)(=O)N2C[C@H]3C[C@H]4C[C@H](C4(C)C)[C@@]3(COC(=O)Nc3ccc(I)cc3)C2)cc1 [compound 90, Methyl 3-(4-(((3aS,4R,6R,7aS)-3a-((((4-iodophenyl)carbamoyl)oxy)methyl)-5,5-dimethyloctahydro-2H-4,6-methanoisoindol-2-yl)sulfonyl)phenyl)-3-methylbutanoate]
IC50 [2]: 32 ± 11 nM

CC(C)(C)c1ccc(S(=O)(=O)N2C[C@H]3C[C@H]4C[C@H](C4(C)C)[C@@]3(COC(=O)Nc3cccc(Br)c3)C2)cc1 [compound 39, ((3aS,4R,6R,7aS)-2-((4-(tert-butyl)phenyl)sulfonyl)-5,5-dimethyloctahydro-3aH-4,6-methanoisoindol-3a-yl)methyl (3-bromophenyl)carbamate]
IC50 [2]: 9900 ± 1580 nM

Cc1ccc(NC(=O)OC[C@]23CN(Cc4ccccc4)C[C@H]2C[C@H]2C[C@@H]3C2(C)C)cc1 [compound 9, ((3aS,4R,6R,7aS)-2-benzyl-5,5-dimethyloctahydro-3aH-4,6-methanoisoindol-3a-yl) methyl p-tolylcarbamate]
activity in cellular Kyn assay (in words) [2]: abolished activity; also recorded: loss of activity

Cc1ccc(NC(=O)OC[C@]23CN(S(=O)(=O)C(C)C)C[C@H]2C[C@H]2C[C@@H]3C2(C)C)cc1 [compound 54, ((3aS,4R,6R,7aS)-2-(isopropylsulfonyl)-5,5-dimethyloctahydro-3aH-4,6-methanoisoindol-3a-yl) methyl p-tolylcarbamate]
IC50 [2]: 4700 ± 410 nM
